For assay [1], the target named is T1, Voltage-gated N-type calcium channel alpha-1B subunit/Amyloid beta A4 precursor protein-binding family A member 1 (Homo sapiens, UniProt Q00975+Q02410). Format: protein assay.
The next assay has as its target Large T antigen (Simian virus 40, UniProt P03070). Format: functional, Betapolyomavirus macacae.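 Also: Confirmatory-stage PubChem screen for compounds that inhibit SV40 T antigen.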
In another assay the target is Bcl-2-like protein 1 (Homo sapiens, UniProt Q07817). As to the kind of experiment: BCL-XL inhibitors, dose response, selectivity assay for MCL1 inhibitor project, biochemical, fluorescence polarization, 1536-well (AID 2218). (Fluorescence polarisation rises when a labelled molecule tumbles more slowly, as on binding a larger partner.)
For assay [2], the target named is T1, Voltage-gated N-type calcium channel alpha-1B subunit/Amyloid beta A4 precursor protein-binding family A member 1. Format: protein assay. This is another data set of the same source.
Assay [3] deals with Induced myeloid leukemia cell differentiation protein Mcl-1 (Homo sapiens, UniProt Q07820). The assay is described as follows: MCL1-BIM BH3 interaction inhibitors, dose response, biochemical, fluorescence polarization, BIM-BH3 peptide, 1536-well (AID 2217).
The target of assay [4] is T2, Estrogen receptor (Homo sapiens, UniProt P03372).
T2 sequence (P03372 whole entry): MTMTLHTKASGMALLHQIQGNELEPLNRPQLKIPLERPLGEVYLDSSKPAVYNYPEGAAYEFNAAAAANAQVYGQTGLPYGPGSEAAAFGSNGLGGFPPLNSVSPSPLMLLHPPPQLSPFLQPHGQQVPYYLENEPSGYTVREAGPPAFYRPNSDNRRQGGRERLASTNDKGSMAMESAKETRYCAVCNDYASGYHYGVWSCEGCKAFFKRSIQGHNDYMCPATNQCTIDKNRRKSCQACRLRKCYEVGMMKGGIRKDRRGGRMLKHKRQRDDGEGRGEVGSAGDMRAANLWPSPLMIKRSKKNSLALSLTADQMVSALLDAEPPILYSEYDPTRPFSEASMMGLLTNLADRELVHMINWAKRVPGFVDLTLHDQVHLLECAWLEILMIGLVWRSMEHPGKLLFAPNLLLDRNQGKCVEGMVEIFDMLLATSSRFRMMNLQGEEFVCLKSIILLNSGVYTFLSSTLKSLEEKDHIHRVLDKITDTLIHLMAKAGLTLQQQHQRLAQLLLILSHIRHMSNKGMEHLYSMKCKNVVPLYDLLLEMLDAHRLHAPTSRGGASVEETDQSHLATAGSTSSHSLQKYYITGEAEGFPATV

Another assay deals with Estrogen receptor beta (Homo sapiens, UniProt Q92731).
For assay [5], the system named is Streptococcus sp. 'group A'. As to the kind of experiment: growth inhibition of control SK(-) GAS strain, dose response, counter-screen for streptokinase expression inhibitor project, luminescence, kanamycin, BacTiterGlo, confirmation (AID 1900). It is filed as functional, organism-based. On the technique in general: A counterscreen serves to expose hits that act by an unwanted route or on another target.

In another assay the target is T3, Streptokinase A (Streptococcus pyogenes serotype M1, UniProt P10520).
T3 sequence (P10520 whole entry): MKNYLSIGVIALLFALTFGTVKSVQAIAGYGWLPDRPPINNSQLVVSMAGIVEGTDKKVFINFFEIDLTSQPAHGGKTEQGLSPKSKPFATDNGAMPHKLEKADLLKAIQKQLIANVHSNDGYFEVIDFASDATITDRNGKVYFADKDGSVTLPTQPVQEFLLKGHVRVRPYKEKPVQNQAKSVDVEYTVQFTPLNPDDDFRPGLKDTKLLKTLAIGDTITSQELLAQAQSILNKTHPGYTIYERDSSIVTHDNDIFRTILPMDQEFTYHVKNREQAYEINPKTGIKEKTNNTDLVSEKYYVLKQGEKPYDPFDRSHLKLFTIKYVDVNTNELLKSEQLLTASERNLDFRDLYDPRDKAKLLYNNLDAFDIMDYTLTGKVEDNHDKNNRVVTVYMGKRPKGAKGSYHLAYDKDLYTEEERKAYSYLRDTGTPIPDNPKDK
As to the kind of experiment: S. pyogenes streptokinase expression inhibitors, potency, dose response, plasminogen activation absorbance, OD405 (AID 1914).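 Also: secreted streptokinase activity via plasminogen activation per viability signal from cell pellet.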 It is filed as functional, Streptococcus pyogenes M1 GAS.

The target of assay [6] is T2, Estrogen receptor. The assay is described as follows: potentiators of ERα–SRC-1 coactivator binding, dose response, biochemical, TR-FRET, ERα LBD (AID 737). Background: TR-FRET usually uses a lanthanide donor and a delayed reading to cut background.
The next assay concerns Streptococcus. As to the kind of experiment: Group A Streptococcus viability loss, dose response, counter-screen for streptokinase expression inhibitor project, luminescence, BacTiterGlo (AID 1915).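 Also: potency for reduction of bacterial viability or growth.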 It is filed as functional, organism-based.
In the next assay the target is NADPH oxidase 1 (Homo sapiens, UniProt Q9Y5S8). It is filed as functional, cell-based.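 Also: Cell-based assay with luminescence read-out, IC50 derived from inhibitor dose-response curves; intracellular ROS from endogenous NOX1 in intact HT29 colon cancer cells; potency of inhibitors that lower the ROS luminescence signal.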
Assay [7] in a line: A Cell Based Secondary Assay To Explore Cytotoxicity of Compounds that Sensitize Mycobacterium Tuberculosis to Beta-Lactam Antibiotics. Format: functional.
Assay [8] is described as follows: Luminescence Cell-Based Dose-Confimation HTS to Identify Inhibitors of 5'UTR Stem-Loop Driven Alpha-Synuclein mRNA Translation in H4 Neuroglioblastoma Cells. [Related pubchem assays: 1827 (Project Summary), 1813 (Primary HTS)]. Format: functional.
The nature of assay [9]: M. tuberculosis H37Rv growth inhibitors, H37Rv strain (AID 1626). Format: functional.
Assay [10] has as its target Sphingosine 1-phosphate receptor 2 (Homo sapiens, UniProt O95136). The assay is described as follows: Dose Response Cell Based Assay for Agonists of the S1P2 Receptor of Purchased Analogues. [Related pubchem assays: 729, 843, 854, 736 ]. It is filed as functional.

The structures appear in SMILES notation. Activity calls are given as the source filed them. Bounds are passed on as bounds.

7 compounds from ChEMBL document CHEMBL1201862, “PubChem BioAssay data set” (2004) can be followed below.

Usually IC50 stands for the point on the concentration scale where inhibition reaches its midpoint. What is called EC50 is the midpoint of the concentration-response curve. One may read the CC50 as the concentration at which the toxic effect on the cells reaches its halfway point.

T1 sequence (Q00975 whole entry): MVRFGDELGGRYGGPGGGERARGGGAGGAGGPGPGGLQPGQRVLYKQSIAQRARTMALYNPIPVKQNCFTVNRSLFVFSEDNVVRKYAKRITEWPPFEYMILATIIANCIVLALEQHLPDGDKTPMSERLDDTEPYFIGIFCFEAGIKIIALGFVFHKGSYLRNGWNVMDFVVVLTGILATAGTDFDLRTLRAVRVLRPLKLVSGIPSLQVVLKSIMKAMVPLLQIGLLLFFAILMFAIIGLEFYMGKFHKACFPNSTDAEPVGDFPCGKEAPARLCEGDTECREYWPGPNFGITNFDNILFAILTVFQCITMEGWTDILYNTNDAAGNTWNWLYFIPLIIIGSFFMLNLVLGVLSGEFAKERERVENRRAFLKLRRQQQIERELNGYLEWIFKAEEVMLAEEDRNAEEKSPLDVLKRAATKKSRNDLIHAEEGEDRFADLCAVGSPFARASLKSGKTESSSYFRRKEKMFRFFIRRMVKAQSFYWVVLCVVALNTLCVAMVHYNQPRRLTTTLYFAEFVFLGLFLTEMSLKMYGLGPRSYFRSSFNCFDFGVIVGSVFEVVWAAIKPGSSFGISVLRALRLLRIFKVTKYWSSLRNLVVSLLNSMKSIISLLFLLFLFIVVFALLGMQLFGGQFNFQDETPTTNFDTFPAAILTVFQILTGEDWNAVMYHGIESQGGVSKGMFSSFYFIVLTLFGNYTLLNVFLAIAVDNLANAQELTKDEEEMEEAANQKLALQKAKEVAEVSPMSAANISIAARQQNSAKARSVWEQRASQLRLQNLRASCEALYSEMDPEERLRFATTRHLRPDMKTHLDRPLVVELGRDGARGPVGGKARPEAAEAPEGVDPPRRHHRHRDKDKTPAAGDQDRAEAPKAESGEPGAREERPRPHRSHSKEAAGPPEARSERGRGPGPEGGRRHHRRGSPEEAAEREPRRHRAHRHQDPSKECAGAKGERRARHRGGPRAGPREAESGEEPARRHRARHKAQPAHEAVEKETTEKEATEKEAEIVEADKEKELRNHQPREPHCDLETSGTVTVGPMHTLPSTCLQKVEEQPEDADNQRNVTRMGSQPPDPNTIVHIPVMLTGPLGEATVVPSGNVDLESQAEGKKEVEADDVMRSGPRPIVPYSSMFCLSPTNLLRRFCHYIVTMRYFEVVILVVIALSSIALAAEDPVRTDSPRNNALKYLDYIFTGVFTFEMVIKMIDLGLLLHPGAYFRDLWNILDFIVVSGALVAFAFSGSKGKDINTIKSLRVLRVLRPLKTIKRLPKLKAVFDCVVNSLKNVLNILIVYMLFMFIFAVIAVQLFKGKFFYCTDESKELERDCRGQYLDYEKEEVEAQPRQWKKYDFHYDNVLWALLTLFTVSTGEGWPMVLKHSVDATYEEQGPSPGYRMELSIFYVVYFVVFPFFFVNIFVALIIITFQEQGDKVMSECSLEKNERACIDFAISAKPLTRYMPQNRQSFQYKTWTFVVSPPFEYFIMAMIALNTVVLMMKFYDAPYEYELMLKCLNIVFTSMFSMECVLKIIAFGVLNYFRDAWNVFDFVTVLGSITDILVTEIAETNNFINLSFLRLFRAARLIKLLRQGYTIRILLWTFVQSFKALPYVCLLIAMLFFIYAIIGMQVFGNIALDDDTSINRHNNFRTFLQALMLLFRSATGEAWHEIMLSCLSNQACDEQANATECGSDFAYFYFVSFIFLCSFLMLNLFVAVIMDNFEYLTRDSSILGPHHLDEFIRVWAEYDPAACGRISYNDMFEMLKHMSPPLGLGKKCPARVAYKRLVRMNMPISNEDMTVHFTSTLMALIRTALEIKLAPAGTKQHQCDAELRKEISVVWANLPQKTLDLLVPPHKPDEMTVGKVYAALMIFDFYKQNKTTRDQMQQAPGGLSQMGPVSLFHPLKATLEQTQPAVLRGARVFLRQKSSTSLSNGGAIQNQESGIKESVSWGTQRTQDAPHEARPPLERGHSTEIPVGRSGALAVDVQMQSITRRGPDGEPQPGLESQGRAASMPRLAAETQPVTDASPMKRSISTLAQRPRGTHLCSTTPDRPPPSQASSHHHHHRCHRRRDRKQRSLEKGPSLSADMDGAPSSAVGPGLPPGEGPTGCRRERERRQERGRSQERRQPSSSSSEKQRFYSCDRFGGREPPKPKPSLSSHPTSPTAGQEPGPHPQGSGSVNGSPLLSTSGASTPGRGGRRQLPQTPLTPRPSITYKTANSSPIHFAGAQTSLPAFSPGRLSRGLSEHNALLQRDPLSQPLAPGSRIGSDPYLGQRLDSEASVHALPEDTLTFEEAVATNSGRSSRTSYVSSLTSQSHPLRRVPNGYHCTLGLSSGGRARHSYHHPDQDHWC
T1 sequence (Q02410 whole entry): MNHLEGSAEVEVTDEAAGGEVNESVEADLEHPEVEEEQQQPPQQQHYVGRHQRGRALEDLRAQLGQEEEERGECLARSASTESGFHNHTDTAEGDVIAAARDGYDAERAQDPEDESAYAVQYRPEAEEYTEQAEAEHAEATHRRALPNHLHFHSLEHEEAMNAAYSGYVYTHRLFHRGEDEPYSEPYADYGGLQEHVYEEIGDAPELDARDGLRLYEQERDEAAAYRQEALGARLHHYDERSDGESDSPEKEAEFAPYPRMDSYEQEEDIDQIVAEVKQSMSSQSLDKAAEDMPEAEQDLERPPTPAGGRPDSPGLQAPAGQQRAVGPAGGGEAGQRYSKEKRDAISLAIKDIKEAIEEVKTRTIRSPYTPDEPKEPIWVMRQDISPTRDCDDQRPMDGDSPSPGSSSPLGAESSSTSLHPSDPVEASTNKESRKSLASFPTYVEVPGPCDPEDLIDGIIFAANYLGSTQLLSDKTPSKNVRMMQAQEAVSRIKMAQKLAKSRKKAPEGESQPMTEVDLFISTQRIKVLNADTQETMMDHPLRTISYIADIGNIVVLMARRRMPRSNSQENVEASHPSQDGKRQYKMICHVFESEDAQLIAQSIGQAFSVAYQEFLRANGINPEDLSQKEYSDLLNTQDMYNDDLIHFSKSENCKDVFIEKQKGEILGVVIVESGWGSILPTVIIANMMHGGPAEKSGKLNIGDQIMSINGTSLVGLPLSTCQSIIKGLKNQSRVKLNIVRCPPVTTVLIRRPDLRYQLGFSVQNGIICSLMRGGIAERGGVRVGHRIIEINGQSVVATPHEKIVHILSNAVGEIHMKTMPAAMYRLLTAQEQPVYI
Sequence of Sphingosine 1-phosphate receptor 2 (O95136 whole entry): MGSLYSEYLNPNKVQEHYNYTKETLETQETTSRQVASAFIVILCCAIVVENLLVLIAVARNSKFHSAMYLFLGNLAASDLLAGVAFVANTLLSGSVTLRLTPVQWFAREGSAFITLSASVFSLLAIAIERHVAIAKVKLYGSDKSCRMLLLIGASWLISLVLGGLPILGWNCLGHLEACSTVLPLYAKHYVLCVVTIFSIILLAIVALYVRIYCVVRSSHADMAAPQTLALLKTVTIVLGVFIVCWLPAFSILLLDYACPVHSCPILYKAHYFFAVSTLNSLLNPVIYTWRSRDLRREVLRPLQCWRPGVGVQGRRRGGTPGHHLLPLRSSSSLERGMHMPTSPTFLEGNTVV
Sequence of Large T antigen (P03070 whole entry): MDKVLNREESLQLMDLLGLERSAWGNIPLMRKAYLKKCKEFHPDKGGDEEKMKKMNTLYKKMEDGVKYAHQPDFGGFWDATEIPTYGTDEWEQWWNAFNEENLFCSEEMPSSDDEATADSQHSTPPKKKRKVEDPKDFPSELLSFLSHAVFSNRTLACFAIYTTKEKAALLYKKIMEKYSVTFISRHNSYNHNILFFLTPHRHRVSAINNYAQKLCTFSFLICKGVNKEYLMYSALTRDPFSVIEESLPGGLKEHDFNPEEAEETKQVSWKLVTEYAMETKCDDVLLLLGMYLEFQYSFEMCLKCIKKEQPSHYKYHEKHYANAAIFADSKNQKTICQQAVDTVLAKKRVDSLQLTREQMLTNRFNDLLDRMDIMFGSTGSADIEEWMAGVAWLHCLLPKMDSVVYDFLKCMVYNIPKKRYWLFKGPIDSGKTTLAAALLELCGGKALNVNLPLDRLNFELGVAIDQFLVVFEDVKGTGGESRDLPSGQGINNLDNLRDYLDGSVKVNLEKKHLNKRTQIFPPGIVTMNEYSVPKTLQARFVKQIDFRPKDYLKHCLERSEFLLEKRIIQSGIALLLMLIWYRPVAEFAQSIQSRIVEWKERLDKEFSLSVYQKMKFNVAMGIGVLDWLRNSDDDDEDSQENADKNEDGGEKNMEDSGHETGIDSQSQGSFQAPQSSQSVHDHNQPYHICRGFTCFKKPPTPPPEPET
Sequence of Estrogen receptor beta (Q92731 whole entry): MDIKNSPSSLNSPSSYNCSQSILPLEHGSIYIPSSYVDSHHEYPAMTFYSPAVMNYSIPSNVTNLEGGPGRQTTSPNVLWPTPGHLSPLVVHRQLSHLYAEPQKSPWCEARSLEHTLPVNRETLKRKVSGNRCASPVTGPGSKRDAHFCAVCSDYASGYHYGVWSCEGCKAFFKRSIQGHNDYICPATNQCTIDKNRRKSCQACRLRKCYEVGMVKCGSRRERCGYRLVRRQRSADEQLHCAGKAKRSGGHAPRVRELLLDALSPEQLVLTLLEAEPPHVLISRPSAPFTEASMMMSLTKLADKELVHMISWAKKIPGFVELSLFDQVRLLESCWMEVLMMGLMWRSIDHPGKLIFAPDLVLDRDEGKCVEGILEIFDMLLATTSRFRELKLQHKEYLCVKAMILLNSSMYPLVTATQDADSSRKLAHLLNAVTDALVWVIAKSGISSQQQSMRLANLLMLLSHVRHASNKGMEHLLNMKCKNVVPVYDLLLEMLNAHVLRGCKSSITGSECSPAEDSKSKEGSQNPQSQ
Sequence of Bcl-2-like protein 1 (Q07817 whole entry): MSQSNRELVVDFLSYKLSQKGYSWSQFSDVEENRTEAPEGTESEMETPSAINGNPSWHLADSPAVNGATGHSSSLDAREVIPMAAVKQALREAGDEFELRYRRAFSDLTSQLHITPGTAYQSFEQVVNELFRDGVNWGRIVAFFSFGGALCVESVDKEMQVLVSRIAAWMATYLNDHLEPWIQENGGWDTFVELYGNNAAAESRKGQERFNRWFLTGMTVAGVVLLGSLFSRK

With `CCOc1ccc(N2CSC3=C(C#N)C(c4ccco4)CC(=O)N3C2)cc1` (stereo unspecified), the half-inhibitory concentration (IC50) in [1] is 9.68 µM (active); at Large T antigen it was 13.8 µM (active); against Bcl-2-like protein 1 it was > 109 µM (not active); in assay [2], 21.6 µM (active); in assay [3], > 109 µM (not active); on Estrogen receptor [4], > 50 µM (not active). Moreover, the half-maximal inhibitory concentration (IC50) on Estrogen receptor beta was > 50 µM (not active).

On to `Cn1nnnc1SCC(=O)Nc1nc(-c2ccccc2)c(-c2ccccc2)o1`, for which the EC50 in assay [5] is 12.7 µM (active); on Streptokinase A it was > 150 µM (not active); at Estrogen receptor [6], 22.2 µM (active); with Streptococcus it was 26 µM (active).

On to `COc1ccc(-c2nc(-c3ccccc3)c(-c3ccccc3)[nH]2)cc1OC`, for which, on NADPH oxidase 1, the IC50 is > 17 µM (not active).

On to `COC(=O)c1c(C)n(-c2ccc(C)cc2)c2ccc(O)cc12`, for which the CC50 in [7] was > 40 µM (active).

In the case of `COc1ccc(C)cc1-n1nnnc1SCc1nc(N)nc(N(C)C)n1`, the half-maximal effective concentration (EC50) in assay [8] was 20.5 µM (active).

As for `COc1ccc(OCCCC(=O)Nc2cccc(SC)c2)cc1`, the IC50 in assay [9] was > 100 µM (active).

Take `CCOC(=O)c1cc(C)n(Cc2ccccc2)c1C`: the EC50 in assay [10] is > 30 µM (not active).
